pEC50: −log10 of the molar value. Like-named read-outs stand apart in the source and are kept apart here.
Assays:
[1] = biological target: CFTR-mediated chloride transport in human intestinal epithelial enteroid cells (Homo sapiens, UniProt P13569); assay: Membrane potential dye, Enteroid Assay A; format: cell-based; settings: for pEC50: read-out: Ent. A EC50
Method in brief: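 Membrane potential dye (20 μM methyl oxonol, with 30 μM CaCCinh-A01 and 30 μM Chicago Sky Blue) loaded 25 min at room temperature into ROCK-inhibitor-seeded human enteroid cells. Chloride-free stimulation buffer triggered transport, followed by 15 min fluorescence. % Activity relative to 3 μM/3 μM/300 nM triple-combination control.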

[2] = enteroid cells incubated with test compound 18-24 hours, acute 10 μM forskolin and 300 nM N-[2,4-bis(1,1-dimethylethyl)-5-hydroxyphenyl]-1,4-dihydro-4-oxoquinoline-3-carboxamide
[3] = percentage of chloride transport of triple combination control (3 μM N-[(6-amino-2-pyridyl)sulfonyl]-6-(3-fluoro-5-isobutoxy-phenyl)-2-[(4S)-2,2,4-trimethylpyrrolidin-1-yl]pyridine-3-carboxamide based)

CFTR-mediated chloride transport in human intestinal epithelial enteroid cells, sequence (P13569 with tags, fused parts or gaps DEL508-508): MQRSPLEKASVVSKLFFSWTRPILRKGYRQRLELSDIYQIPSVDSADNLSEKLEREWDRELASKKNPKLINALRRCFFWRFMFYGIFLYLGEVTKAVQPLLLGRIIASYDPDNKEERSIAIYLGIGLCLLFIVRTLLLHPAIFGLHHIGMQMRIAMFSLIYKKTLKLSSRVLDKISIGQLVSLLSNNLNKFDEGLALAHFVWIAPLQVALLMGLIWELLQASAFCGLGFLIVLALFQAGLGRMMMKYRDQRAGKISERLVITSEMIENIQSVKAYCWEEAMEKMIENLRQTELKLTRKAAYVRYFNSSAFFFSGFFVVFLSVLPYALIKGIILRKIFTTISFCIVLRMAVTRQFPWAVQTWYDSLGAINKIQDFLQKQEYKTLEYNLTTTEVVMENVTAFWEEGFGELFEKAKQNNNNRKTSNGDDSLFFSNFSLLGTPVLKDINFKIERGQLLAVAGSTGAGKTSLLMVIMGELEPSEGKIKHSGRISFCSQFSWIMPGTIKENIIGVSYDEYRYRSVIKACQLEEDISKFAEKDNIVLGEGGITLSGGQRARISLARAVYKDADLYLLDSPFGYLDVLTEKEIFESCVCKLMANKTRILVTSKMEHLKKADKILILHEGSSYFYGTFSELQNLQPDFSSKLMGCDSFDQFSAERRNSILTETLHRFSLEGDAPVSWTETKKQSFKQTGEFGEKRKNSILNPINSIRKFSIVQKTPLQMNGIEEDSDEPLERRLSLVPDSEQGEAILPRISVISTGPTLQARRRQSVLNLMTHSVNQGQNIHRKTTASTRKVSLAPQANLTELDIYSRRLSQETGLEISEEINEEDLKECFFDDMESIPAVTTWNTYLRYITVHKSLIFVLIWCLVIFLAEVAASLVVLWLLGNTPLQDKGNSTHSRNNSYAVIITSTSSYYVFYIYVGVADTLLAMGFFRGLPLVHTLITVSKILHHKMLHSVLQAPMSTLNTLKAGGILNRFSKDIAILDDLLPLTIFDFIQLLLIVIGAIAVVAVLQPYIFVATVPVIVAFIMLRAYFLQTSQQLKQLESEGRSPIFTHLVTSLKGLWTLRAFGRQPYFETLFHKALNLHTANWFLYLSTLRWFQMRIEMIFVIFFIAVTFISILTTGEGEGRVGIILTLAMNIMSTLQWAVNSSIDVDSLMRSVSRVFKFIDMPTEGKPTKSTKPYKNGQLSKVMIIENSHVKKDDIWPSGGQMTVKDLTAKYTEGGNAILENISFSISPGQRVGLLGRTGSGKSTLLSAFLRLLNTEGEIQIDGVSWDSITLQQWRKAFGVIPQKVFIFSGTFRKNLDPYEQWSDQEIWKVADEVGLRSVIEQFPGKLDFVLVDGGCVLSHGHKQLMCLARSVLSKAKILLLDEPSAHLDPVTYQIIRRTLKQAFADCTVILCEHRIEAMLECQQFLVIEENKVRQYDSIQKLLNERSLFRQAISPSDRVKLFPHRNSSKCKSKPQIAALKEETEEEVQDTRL

Ent. A Max Activity (%) ([1]; Enteroid Assay A) | pEC50 ([1]; Enteroid Assay A) | pEC50 [1, 2] | Structure (SMILES) | Ent. A Max Activity (%) [1, 3] | other results
+++ (+++ is >600%) | > 6.00 |  | Cc1cccc(C)c1-c1cc2nc(n1)NS(=O)(=O)c1cccc(c1)C(=O)N1CCN(C(C)(C)C)C[C@H](C1)O2 [Compound 71, (16R)-18-tert-Butyl-12-(2,6-dimethylphenyl)-15-oxa-8λ^6-thia-1,9,11,18,22-pentaazatetracyclo[14.4.1.13,7.110,14]tricosa-3(23),4,6,10(22),11,13-hexaene-2,8,8-trione] |  | ring closure, yield after HPLC (from Cc1cccc(C)c1-c1cc(Cl)nc(NS(=O)(=O)c2cccc(C(=O)N3CCN(C(C)(C)C)C[C@@H](O)C3)c2)n1, snar bond, 13-membered ring, NaH, DMF, 33.9 mM, 25.0 °C, 4.17 h): 37%
+++ (+++ is >600%) | > 6.00 |  | Cc1cccc(C)c1-c1cc2nc(n1)NS(=O)(=O)c1cccc(c1)C(=O)N1CC(CN(Cc3ccccc3)[C@@H](CC(C)C)C1)O2 (stereo partly drawn) [Compound 107, (19S)-18-Benzyl-12-(2,6-dimethylphenyl)-19-(2-methylpropyl)-15-oxa-8λ^6-thia-1,9,11,18,22-pentaazatetracyclo[14.4.1.13,7.110,14]tricosa-3(23),4,6,10(22),11,13-hexaene-2,8,8-trione] |  | ring closure, yield after HPLC (from Cc1cccc(C)c1-c1cc(Cl)nc(NS(=O)(=O)c2cccc(C(=O)N3CC(O)CN(Cc4ccccc4)[C@@H](CC(C)C)C3)c2)n1, snar bond, 13-membered ring, NaH, DMF, 29.1 mM, 0.0 °C, 4.0 h): 3%
 |  | 5.52 to 6.00 | Cc1cccc(C)c1-c1cc2nc(n1)NS(=O)(=O)c1cccc(c1)NC(=O)CN1CCCC(C1)O2 (stereo not shown) [Compound 160, 5-(2,6-Dimethylphenyl)-2-oxa-9λ^6-thia-6,8,15,18,24-pentaazatetracyclo[16.3.1.13,7.110,14]tetracosa-3(24),4,6,10,12,14(23)-hexaene-9,9,16-trione] | + (+ is <300%) | ring closure, yield after HPLC (from Cc1cccc(C)c1-c1cc(OC2CCCN(CC(=O)Nc3cccc(S(N)(=O)=O)c3)C2)nc(Cl)n1, cn_pd bond, 15-membered ring, Pd(OAc)2/Xantphos/Cs2CO3, dioxane, 20.1 mM, 100.0 °C, 16.0 h): 17%
 |  | > 6.00 | Cc1cccc(C)c1-c1cc2nc(n1)NS(=O)(=O)c1cccc(c1)C(=O)N1CCN(CCC3(C(F)(F)F)CC3)CC1CO2 (stereo not shown) [Compound 170, 13-(2,6-Dimethylphenyl)-6-{2-[1-(trifluoromethyl)cyclopropyl]ethyl}-10-oxa-17λ^6-thia-3,6,14,16,23-pentaazatetracyclo[16.3.1.111,15.03,8]tricosa-1(22),11,13,15(23),18,20-hexaene-2,17,17-trione] | ++ (++ is 30-60%) | ring closure, yield after HPLC (from Cc1cccc(C)c1-c1cc(OCC2CN(CCC3(C(F)(F)F)CC3)CCN2)nc(NS(=O)(=O)c2cccc(C(=O)O)c2)n1, amide bond, 13-membered ring, HATU/DIEA, DMF, 18.7 mM, 25.0 °C, 1.0 h, 3 steps): 14%
 |  | 5.52 to 6.00 | Cc1cccc(C)c1-c1cc2nc(n1)NS(=O)(=O)c1cccc(c1)C(=O)N1CCN(C(=O)OC(C)(C)C)CC1C(C)O2 (stereo not shown) [Compound 173, tert-Butyl 13-(2,6-dimethylphenyl)-9-methyl-2,17,17-trioxo-10-oxa-17λ^6-thia-3,6,14,16,23-pentaazatetracyclo[16.3.1.111,15.03,8]tricosa-1(22),11,13,15(23),18,20-hexaene-6-carboxylate] | ++ (++ is 30-60%) | ring closure, yield after HPLC (from Cc1cccc(C)c1-c1cc(OC(C)C2CN(C(=O)OC(C)(C)C)CCN2)nc(NS(=O)(=O)c2cccc(C(=O)O)c2)n1, amide bond, 13-membered ring, HATU/DIEA, DMF, 10.9 mM, 25.0 °C, 0.5 h): 19%
++ (++ is 30-60%) | > 6.00 |  | Cc1cccc(C)c1-c1cc2nc(n1)NS(=O)(=O)c1cccc(c1)C(=O)N1CCN(C(=O)OC(C)(C)C)CC1C(Cc1ccccc1)O2 (stereo not shown) [Compound 175, tert-butyl 9-benzyl-13-(2,6-dimethylphenyl)-2,17,17-trioxo-10-oxa-17λ^6-thia-3,6,14,16,23-pentaazatetracyclo[16.3.1.111,15.03,8]tricosa-1(22),11,13,15(23),18,20-hexaene-6-carboxylate] |  | ring closure, yield after HPLC (from Cc1cccc(C)c1-c1cc(OC(Cc2ccccc2)C2CN(C(=O)OC(C)(C)C)CCN2)nc(NS(=O)(=O)c2cccc(C(=O)O)c2)n1, amide bond, 13-membered ring, HATU/DIEA, DMF, 10.8 mM, 25.0 °C, 0.083 h): 55%
 | > 6.00 |  | Cc1cccc(C)c1-c1cc2nc(n1)NS(=O)(=O)c1cccc(c1)C(=O)N1Cc3cc(C(C)(C)C)ccc3[C@@H](O2)[C@H]1CC(C)(C)C [Compound 189, (16R,24R)-20-tert-butyl-12-(2,6-dimethylphenyl)-24-(2,2-dimethylpropyl)-15-oxa-8λ^6-thia-1,9,11,25-tetraazapentacyclo[14.7.1.13,7.110,14.017,22]hexacosa-3(26),4,6,10(25),11,13,17,19,21-nonaene-2,8,8-trione] |  | ring closure, yield after HPLC (from Cc1cccc(C)c1-c1cc(O[C@@H]2c3ccc(C(C)(C)C)cc3CN[C@@H]2CC(C)(C)C)nc(NS(=O)(=O)c2cccc(C(=O)O)c2)n1, amide bond, 13-membered ring, HATU/NaOtBu, DMF/THF, 0.25 h, 2 steps): 0.35%
 | > 6.00 |  | Cc1ccccc1-c1cc2nc(n1)NS(=O)(=O)c1cccc(c1)C(=O)N1Cc3ccccc3[C@@H](O2)[C@H]1CC(C)C [Compound 192, (16R,24R)-12-(2-Methylphenyl)-24-(2-methylpropyl)-15-oxa-8λ^6-thia-1,9,11,25-tetraazapentacyclo[14.7.1.13,7.110,14.017,22]hexacosa-3(26),4,6,10,12,14(25),17,19,21-nonaene-2,8,8-trione] |  | ring closure, yield after HPLC (from Cc1ccccc1-c1cc(O[C@@H]2c3ccccc3CN[C@@H]2CC(C)C)nc(NS(=O)(=O)c2cccc(C(=O)O)c2)n1, amide bond, 13-membered ring, HATU/DIEA, DMF, 424.0 mM, 0.5 h, 3 steps): 9%
 |  | 4.52 to 5.52 | Cc1cccc(C)c1-c1cc2nc(n1)NS(=O)(=O)c1cccc(c1)C(=O)N1Cc3cnccc3C(C1)O2 (stereo not shown) [Compound 194, 12-(2,6-Dimethylphenyl)-15-oxa-8λ^6-thia-1,9,11,20,25-pentaazapentacyclo[14.7.1.13,7.110,14.017,22]hexacosa-3(26),4,6,10,12,14(25),17,19,21-nonaene-2,8,8-trione] | ++ (++ is 30-60%) | ring closure, yield after HPLC (from Cc1cccc(C)c1-c1cc(OC2CNCc3cnccc32)nc(NS(=O)(=O)c2cccc(C(=O)O)c2)n1, amide bond, 13-membered ring, HATU/DIEA, DMF, 19.0 mM, 0.5 h, 3 steps): 1%
 |  | 5.52 to 6.00 | Cc1cccc(C)c1-c1cc2nc(n1)NS(=O)(=O)c1cccc(c1)C(=O)N1Cc3ncccc3C(C1)O2 (stereo not shown) [Compound 198, 12-(2,6-Dimethylphenyl)-15-oxa-8λ^6-thia-1,9,11,21,25-pentaazapentacyclo[14.7.1.13,7.110,14.017,22]hexacosa-3,5,7(26),10(25),11,13,17,19,21-nonaene-2,8,8-trione] | ++ (++ is 30-60%) | ring closure, yield after HPLC (from Cc1cccc(C)c1-c1cc(OC2CNCc3ncccc32)nc(NS(=O)(=O)c2cccc(C(=O)O)c2)n1, amide bond, 13-membered ring, HATU/DIEA, NMP, 132.0 mM, 25.0 °C, 1.0 h): 44%
 |  | 4.52 to 5.52 | Cc1cccc(C)c1-c1cc2nc(n1)NS(=O)(=O)c1cccc(c1)C(=O)N1CC[C@@H](C1)O2 [Compound 213, (3S)-17-(2,6-Dimethylphenyl)-2-oxa-13λ^6-thia-6,14,16,19-tetraazatetracyclo[13.3.1.13,6.18,12]henicosa-1(19),8(20),9,11,15,17-hexaene-7,13,13-trione] | +++ (+++ is >60%) | ring closure, yield after HPLC (from Cc1cccc(C)c1-c1cc(O[C@H]2CCNC2)nc(NS(=O)(=O)c2cccc(C(=O)O)c2)n1, amide bond, 13-membered ring, HATU/TEA, DMF, 53.7 mM, 25.0 °C, 1.0 h): 20%
 |  | > 6.00 | Cc1cccc(C)c1-c1cc2nc(n1)NS(=O)(=O)c1cccc(c1)C(=O)N1CCC(O2)c2ccccc2C1 (stereo not shown) [Compound 227, 12-(2,6-dimethylphenyl)-15-oxa-8λ^6-thia-1,9,11,26-tetraazapentacyclo[14.7.2.13,7.110,14.017,22]heptacosa-3(27),4,6,10(26),11,13,17,19,21-nonaene-2,8,8-trione] | ++ (++ is 30-60%) | ring closure, yield after HPLC (from Cc1cccc(C)c1-c1cc(OC2CCNCc3ccccc32)nc(NS(=O)(=O)c2cccc(C(=O)O)c2)n1, amide bond, 14-membered ring, HATU/DIEA, DMF, 13.1 mM, 25.0 °C, 0.083 h, 3 steps): 12%
++ (++ is 30-60%) | 5.52 to 6.00 |  | Cc1cccc(C)c1-c1cc2nc(n1)NS(=O)(=O)c1cccc(c1)C(=O)N1CC(CCc3ccccc31)O2 (stereo not shown) [Compound 228, 5-(2,6-Dimethylphenyl)-2-oxa-9λ^6-thia-6,8,16,27-tetraazapentacyclo[14.8.1.13,7.110,14.017,22]heptacosa-3(27),4,6,10,12,14(26),17(22),18,20-nonaene-9,9,15-trione] |  | ring closure, yield after HPLC (from Cc1cccc(C)c1-c1cc(Cl)nc(NS(=O)(=O)c2cccc(C(=O)N3CC(O)CCc4ccccc43)c2)n1, snar bond, 13-membered ring, NaH, DMF, 21.9 mM, 25.0 °C, 48.0 h): 15%

— patent US20240018161A1, “MODULATORS OF CYSTIC FIBROSIS TRANSMEMBRANE CONDUCTANCE REGULATOR” (VERTEX PHARMACEUTICALS INCORPORATED, priority 2020, published 2024)
